Assay results: patent US20250059131A1, “FLUORINATED CATIONIC LIPIDS FOR USE IN LIPID NANOPARTICLES” (Acuitas Therapeutics, Inc., priority 2021, published 2025)
Marks after values point to notes of the source that are not given here.

What was measured:
[1] = system: luciferase expression in the liver; assay: Luciferase mRNA in vivo evaluation using lipid nanoparticle compositions; set-up: species or system mice; settings: tail vein injection, 4 hours after administration, LNP formulation; for Liver Luc @ 0.5 mg/kg (ng luc/g): 0.5 mg mRNA/kg
Experimental: Lipid nanoparticles were prepared and tested according to the general procedures described in PCT Pub. Nos. WO 2015/199952 and WO 2017/004143, the full disclosures of which are incorporated herein by reference. Briefly, cationic lipid, DSPC, cholesterol and PEG-lipid were solubilized in ethanol at a molar ratio of about 50:10:38.5:1.5 or about 47.5:10:40.7:1.8. Lipid nanoparticles (LNP) were prepared at a total lipid to mRNA weight ratio of approximately 10:1 to 40:1. The mRNA is diluted to 0.2 mg/mL in 10 to 50 mM citrate or acetate buffer, pH 4. Syringe pumps were used to mix the ethanolic lipid solution with the mRNA aqueous solution at a ratio of about 1:5 to 1:3 (vol/vol) with total flow rates above 15 mL/min. The ethanol was then removed and the external buffer replaced with PBS by dialysis. Finally, the lipid nanoparticles were filtered through a 0.2 µm pore sterile filter. Lipid nanoparticle particle size was approximately 55-95 nm diameter, and in some instances approximately 70-90 nm diameter as determined by quasi-elastic light scattering using a Malvern Zetasizer Nano ZS (Malvern, UK).
Studies were performed in 6-8 week old female C57BL/6 mice (Charles River) or 8-10 week old CD-1 (Harlan) mice (Charles River) according to guidelines established by an institutional animal care committee (ACC) and the Canadian Council on Animal Care (CCAC). Varying doses of mRNA-lipid nanoparticle were systemically administered by tail vein injection and animals euthanized at a specific time point (e.g., 4 hours) post-administration. Liver and spleen were collected in pre-weighed tubes, weights determined, immediately snap frozen in liquid nitrogen and stored at −80° C. until processing for analysis.
For liver, approximately 50 mg was dissected for analyses in a 2 mL FastPrep tubes (MP Biomedicals, Solon OH). […] ceramic sphere (MP Biomedicals) is added to each tube and 500 μL of Glo Lysis Buffer—GLB (Promega, Madison WI) equilibrated to room temperature is added to liver tissue. Liver tissues were homogenized with the FastPrep24 instrument (MP Biomedicals) at 2×6.0 m/s for 15 seconds. Homogenate was incubated at room temperature for 5 minutes prior to a 1:4 dilution in GLB and assessed using SteadyGlo Luciferase assay system (Promega). Specifically, 50 μL of diluted tissue homogenate was reacted with 50 μL of SteadyGlo substrate, shaken for 10 seconds followed by 5 minute incubation and then quantitated using a CentroXS^3 LB 960 luminometer (Berthold Technologies, Germany). The amount of protein assayed was determined by using the BCA protein assay kit (Pierce, Rockford IL). Relative luminescence units (RLU) were then normalized to total μg protein assayed. To convert RLU to ng luciferase a standard curve was generated with QuantiLum Recombinant Luciferase (Promega).
The FLuc mRNA (L-6107 or L-7202) from Trilink Biotechnologies will express a luciferase protein, originally isolated from the firefly, photinus pyralis. FLuc is commonly used in mammalian cell culture to measure both gene expression and cell viability. It emits bioluminescence in the presence of the substrate, luciferin. This capped and poly-adenylated mRNA was fully substituted with respect to uridine and/or cytidine nucleosides.
(§1) Representative compounds of the disclosure shown in Table 2 were formulated using the following molar ratio: 50% cationic lipid/10% distearoylphosphatidylcholine (DSPC)/38.5% Cholesterol/1.5% PEG lipid 2-[2-(ω-methoxy(polyethyleneglycol2000)ethoxy]-N,N-ditetradecylacetamide) or 47.5% cationic lipid/10% DSPC/40.7% Cholesterol/1.8% PEG lipid. Relative activity was determined by measuring luciferase expression in the liver 4 hours following administration via tail vein injection as described in Example 1 or by measuring the amount of human IgG in mouse serum as described in example 2. […]

[2] = Determination of pKa of formulated lipids (TNS fluorescence assay in lipid nanoparticles); type: physicochemical; settings: cationic lipid formulated in LNP (cationic lipid/DSPC/cholesterol/PEG-lipid 47.5/10/40.7/1.8 mol %), pH of half-maximal fluorescence
Experimental: As described elsewhere, the pKa of formulated cationic lipids is correlated with the effectiveness of LNPs for delivery of nucleic acids (see Jayaraman et al, Angewandte Chemie, International Edition (2012), 51(34), 8529-8533; Semple et al, Nature Biotechnology 28, 172-176 (2010)). The preferred range of pKa is ˜5 to ˜7. The pKa of each cationic lipid was determined in lipid nanoparticles using an assay based on fluorescence of 2-(p-toluidino)-6-napthalene sulfonic acid (TNS). Lipid nanoparticles comprising cationic lipid/DSPC/cholesterol/PEG-lipid (47.5/10/40.7/1.8 mol %) in PBS at a concentration of 0.4 mM total lipid were prepared using the in-line process as described in Example 1. TNS was prepared as a […] stock solution in distilled water. Vesicles were diluted to 24 μM lipid in 2 mL of buffered solutions containing, 10 mM HEPES, 10 mM MES, 10 mM ammonium acetate, 130 mM NaCl, where the pH ranged from 2.5 to 11. An aliquot of the TNS solution was added to give a final concentration of 1 μM and following vortex mixing fluorescence intensity was measured at room temperature in a SLM Aminco Series 2 Luminescence Spectrophotometer using excitation and emission wavelengths of 321 nm and 445 nm. A sigmoidal best fit analysis was applied to the fluorescence data and the pKa was measured as the pH giving rise to half-maximal fluorescence intensity.

human IgG in mouse serum = assay: Immunoglobulin G (IgG) mRNA in vivo evaluation using lipid nanoparticle compositions; set-up: species or system mice; settings: tail vein injection, 24 hours after administration, LNP formulation; for Serum IgG @ 0.3 mg/kg: 0.3 mg mRNA/kg; for Serum IgG @ 1.0 mg/kg: 1.0 mg mRNA/kg
Experimental: A lipid of structure (I), DSPC, cholesterol and PEG-lipid are solubilized in ethanol at a molar ratio of 50:10:38.5:1.5 or 47.5:10:40.7:1.8. Lipid nanoparticles (LNP) are prepared at a total lipid to mRNA weight ratio of approximately 10:1 to 40:1. Briefly, the mRNA is diluted to 0.2 mg/mL in 10 to 50 mM citrate buffer, pH 4 or 10 to 25 mM acetate buffer, pH 4. Syringe pumps are used to mix the ethanolic lipid solution with the mRNA aqueous solution at a ratio of about 1:5 to 1:3 (vol/vol) with total flow rates above 15 mL/min. The ethanol is then removed and the external buffer replaced with PBS by dialysis. Finally, the lipid nanoparticles are filtered through a 0.2 µm pore sterile filter.
Studies are performed in 6-8 week old CD-1/ICR mice (Envigo) according to guidelines established by an institutional animal care committee (ACC) and the Canadian Council on Animal Care (CCAC). Varying doses of mRNA-lipid nanoparticle are systemically administered by tail vein injection and animals euthanized at a specific time point (e.g., 24 hours) post-administration. The whole blood is collected, and the serum subsequentially separated by centrifuging the tubes of the whole blood at 2000× g for 10 minutes at 4° C. and stored at −80° C. until use for analysis.
For immunoglobulin G (IgG) ELISA (Life Diagnostics Human IgG ELISA kit), the serum samples are diluted at 100 to 15000 folds with 1× diluent solution. 100 μL of diluted serum is dispensed into anti-human IgG coated 96-well plate in duplicate alongside human IgG standards and incubated in a plate shaker at 150 rpm at 25° C. for 45 minutes. The wells are washed 5 times with 1× wash solution using a plate washer (400 μL/well). […] The absorbance is read at 450 nm (A450) with a microplate reader. The amount of human IgG in mouse serum is determined by plotting A450 values for the assay standard against human IgG concentration.
as §1, with “2. The activity was compared at a dose of 1.0 or 0.5 or 0.3 mg mRNA/kg and expressed as ng luciferase/g liver measured 4 hours after administration, as described in Example 1 or as μg IgG/mL serum measured 24 hours after administration, as described in Example 2.” for “2.”

| SMILES | pKa [2] | Liver Luc, determined at 0.3 mg/kg (ng luc/g) ([1]; 0.3 mg mRNA/kg) | Liver Luc, determined at 1.0 mg/kg (ng luc/g) ([1]; 1.0 mg mRNA/kg) | Liver Luc @ 0.5 mg/kg (ng luc/g) [1] [ng luc/g] | Serum IgG @ 0.3 mg/kg (human IgG in mouse serum) [µg/mL] | Serum IgG @ 1.0 mg/kg (human IgG in mouse serum) [µg/mL] |
| --- | --- | --- | --- | --- | --- | --- |
| CCCCCCCCCC(CC)OC(=O)CCCCCN(CCCCO)CCCCCC(=O)OC(CC)CCCCCCCCC (stereo not drawn) [I-3 analogue, reference compound] | 6.62 |  |  | 462 ± 425 |  |  |
| CCCCCCCCCC(OC(=O)CCCCCCCN(CCO)CCCCCCCC(=O)OC(CCCCCCCCC)C(F)(F)C(F)(F)F)C(F)(F)C(F)(F)F (stereo not drawn) [Compound I-1, BIS(1,1,1,2,2-PENTAFLUORODODECAN-3-YL) 8,8′-((2-HYDROXYETHYL)AZANEDIYL)DIOCTANOATE] | 5.88 |  |  | 1233 ± 305 |  |  |
| CCCCCCCCCCN(CCCCCCCCCC)C(=O)C(F)CCCCCCN(C)CCCCCCC(F)C(=O)N(CCCCCCCCCC)CCCCCCCCCC (stereo not drawn) [Compound I-10, 8,8′-(METHYLAZANEDIYL)BIS(N,N-DIDECYL-2-FLUOROOCTANAMIDE)] |  |  |  |  | 12.94 ± 2.03 | 142.26 ± 26.31 |
| CCCCCCCCCCN(CCCCCCCCCC)C(=O)C(F)CCCCCCN(CCCCCO)CCCCCCC(F)C(=O)N(CCCCCCCCCC)CCCCCCCCCC (stereo not drawn) [Compound I-9, 8,8′-((5-HYDROXYPENTYL)AZANEDIYL)BIS(N,N-DIDECYL-2-FLUOROOCTANAMIDE)] |  |  |  |  | 24.36 ± 4.39 | 239.26 ± 39.80 |

Now from value to compound, other results behind:

| pKa [2] | SMILES | Liver Luc, determined at 0.3 mg/kg (ng luc/g) ([1]; 0.3 mg mRNA/kg) | Liver Luc, determined at 1.0 mg/kg (ng luc/g) ([1]; 1.0 mg mRNA/kg) | Liver Luc @ 0.5 mg/kg (ng luc/g) [1] [ng luc/g] | Serum IgG @ 0.3 mg/kg (human IgG in mouse serum) [µg/mL] | Serum IgG @ 1.0 mg/kg (human IgG in mouse serum) [µg/mL] |
| --- | --- | --- | --- | --- | --- | --- |
| 5.88 | CCCCCCCCCC(OC(=O)CCCCCN(CCCCCO)CCCCCC(=O)OC(CCCCCCCCC)C(F)(F)C(F)(F)F)C(F)(F)C(F)(F)F (stereo not drawn) [Compound I-4, BIS(1,1,1,2,2-PENTAFLUORODODECAN-3-YL) 6,6′-((5-HYDROXYPENTYL)AZANEDIYL)DIHEXANOATE] | 1336 ± 329 | 14888 + 2009** ng luc/g |  |  |  |
| 5.92 | CCCCCCCCCC(OC(=O)CCCCCN(CCCO)CCCCCC(=O)OC(CCCCCCCCC)C(F)(F)C(F)(F)F)C(F)(F)C(F)(F)F (stereo not drawn) [Compound I-2, BIS(1,1,1,2,2-PENTAFLUORODODECAN-3-YL) 6,6′-((3-HYDROXYPROPYL)AZANEDIYL)DIHEXANOATE] |  |  | 511 ± 79 |  |  |
| 6.03 | CCCCCCCCCC(OC(=O)CCCCCN(CCCCO)CCCCCC(=O)OC(CCCCCCCCC)C(F)(F)C(F)(F)F)C(F)(F)C(F)(F)F (stereo not drawn) [Compound I-3, BIS(1,1,1,2,2-PENTAFLUORODODECAN-3-YL) 6,6′-((4-HYDROXYBUTYL)AZANEDIYL)DIHEXANOATE] |  |  | 3633 ± 1416 |  |  |
